In the experiment the test system is U87-CXCR4 + cells. In words: MTS cell viability assay. Type of experiment: cell-based. The note with it: 2 h. As for the experimental part:
Cell viability assays were performed using increasing activity concentrations of the radiolabelled peptides (1 to 20 MBq/mL), incubated with U87-CXC4 + cells for four hours at 37 °C, 5% CO2. After the incubation period, cells were washed twice with PBS and replenished with complete media. After five and seven days of treatment, the cell media was removed and MTS (3-(4,5-dimethylthiazol-2-yl)-5-(3-carboxymethoxyphenyl)-2-(4-sulfophenyl)-2 H-tetrazolium) reagent added, prepared according to manufacturer’s instructions (CellTiter 96® AQueous One Solution Cell Proliferation Assay, Promega, Wisconsin, United States). To determine the effect of the radiation originating from unbound radiolabelled peptides, cells were treated with equivalent activity concentrations of [^177Lu]Lu-DTPA. Triton X-100 (0.1%) was used as a positive control. Vehicle includes the NaOAc radiolabeling buffer at the concentration used for the 20 MBq/mL peptide solutions. The cells were incubated for 0.5–1 h with the MTS reagent at 37 °C, 5% CO2. Absorbance was measured at 490 nm using a BioTek Synergy H1 plate reader (Agilent Technologies, Mechelen, Belgium). Cell viability was normalised to the vehicle and calculated as percentage of cell viability.

Structures are written as SMILES. Where a SMILES comes first, the peptide text is derived from it. Bridges are numbered along the chain shown (N, C = ends). [ ]: non-standard residue; d: D form. The star is where a group is joined. DOTA = O=C(O)CN1CCN(CC(=O)O)CCN(CC(=O)*)CCN(CC(=O)O)CC1; 2Nal = N[C@@H](Cc1ccc2ccccc2c1)C(=O)O; Cit = NC(=O)NCCC[C@H](N)C(=O)O

The record followed here is PMC11250742, “Preclinical evaluation of CXCR4 peptides for targeted radionuclide therapy in glioblastoma” (EJNMMI Radiopharmacy and Chemistry, 2024).

Regarding `N=C(N)NCCC[C@@H]1NC(=O)[C@@H]2CSSC[C@H](NC(=O)[C@H](Cc3ccc4ccccc4c3)NC(=O)[C@H](CCCNC(=N)N)NC(=O)[C@H](CCCNC(=N)N)NC(=O)[C@H]3CCCN3C(=O)CNC1=O)C(=O)N[C@@H](Cc1ccc(O)cc1)C(=O)N[C@@H](CCC(N)=O)C(=O)N[C@@H](CCCCNC(=O)CN1CCN(CC(=O)O)CCN(CC(=O)O)CCN(CC(=O)O)CC1)C(=O)N1CCC[C@@H]1C(=O)N1CCC[C@H]1C(=O)N[C@@H](Cc1ccc(O)cc1)C(=O)N[C@@H](CCCNC(=N)N)C(=O)N[C@@H](CCCNC(N)=O)C(=O)N2` [[^177Lu]Lu-DOTA-POL3026, metal not drawn] (cyclo(RR[2Nal]CYQK(DOTA)[dP]PYR[Cit]CRG[dP]); disulfide 4-13), the cell viability worked out at 52.3 ± 9.9%.

One may read the cell viability as the share of living cells, or the viability signal relative to a control.
